Legend:
Format in all cases: in vivo
[1] = target: T1, pregnane X receptor (PXR) (Rattus norvegicus, UniProt Q9R1A7); assay: EMSA of liver nuclear protein binding to DR4 consensus sequence; conditions: APE or andrographolide for 5 days
T1 construct: from tissue; host or cells: crude liver nuclear extract of treated Sprague-Dawley rats
T1 sequence (Q9R1A7 1-431): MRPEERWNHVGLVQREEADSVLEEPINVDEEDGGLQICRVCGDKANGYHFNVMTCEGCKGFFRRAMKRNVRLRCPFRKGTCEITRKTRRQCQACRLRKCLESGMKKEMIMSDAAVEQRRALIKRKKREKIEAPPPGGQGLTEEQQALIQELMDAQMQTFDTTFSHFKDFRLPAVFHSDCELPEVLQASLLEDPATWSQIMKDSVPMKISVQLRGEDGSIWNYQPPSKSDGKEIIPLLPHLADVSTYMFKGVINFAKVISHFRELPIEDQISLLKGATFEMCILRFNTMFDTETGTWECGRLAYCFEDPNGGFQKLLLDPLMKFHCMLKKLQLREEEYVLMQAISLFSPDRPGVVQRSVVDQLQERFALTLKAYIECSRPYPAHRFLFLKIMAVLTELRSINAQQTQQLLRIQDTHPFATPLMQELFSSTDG
T1 sequence (Q05343 1-467 partner): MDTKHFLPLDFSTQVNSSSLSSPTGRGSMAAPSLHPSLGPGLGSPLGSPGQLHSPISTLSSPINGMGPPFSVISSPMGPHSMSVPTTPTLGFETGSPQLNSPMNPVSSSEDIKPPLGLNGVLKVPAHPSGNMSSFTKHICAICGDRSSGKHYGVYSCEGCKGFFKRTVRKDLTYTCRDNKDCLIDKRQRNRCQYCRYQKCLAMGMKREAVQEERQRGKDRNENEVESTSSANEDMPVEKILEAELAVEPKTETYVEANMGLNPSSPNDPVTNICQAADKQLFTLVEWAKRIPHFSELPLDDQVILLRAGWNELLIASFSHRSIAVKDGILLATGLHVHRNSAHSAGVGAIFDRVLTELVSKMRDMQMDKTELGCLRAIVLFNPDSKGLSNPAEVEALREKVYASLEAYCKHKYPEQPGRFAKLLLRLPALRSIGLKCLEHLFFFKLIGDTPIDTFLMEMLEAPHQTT
Method: Nuclear proteins of liver tissues were extracted as described by Tian et al. with some modifications. Briefly, 0.1 g of liver was homogenized (1 : 9, w/v) with 0.9 mL of ice-cold 10 mM HEPES buffer (pH 7.9) containing 10 mM KCl, 1 mM MgCl2, 0.1 mM EDTA, 0.5 mM dithiothreitol, 0.5 mM PMSF, 4 μg/mL leupeptin, and 20 μg/mL aprotinin. The homogenates were placed in an ice bath for 15 min and then centrifuged at 600 ×g for 10 min. Then, 100 μL of 10% Nonidet P-40 was added to the supernatant, and the samples were allowed to sit in an ice bath for 10 min. The supernatant was centrifuged at 5,000 ×g for 5 min. The pellet, containing crude nuclei, was resuspended in 100 μL of hypertonic buffer containing 10 mM HEPES, 400 mM KCl, 1 mM MgCl2, 0.1 mM EDTA, 0.5 mM dithiothreitol, 4 μg/mL leupeptin, 20 μg/mL aprotinin, 25% glycerol, and 0.5 mM PMSF at 4°C for 45 min. Nuclear proteins were then collected by centrifugation at 12,000 ×g for 15 min.
EMSA was performed according to the method reported previously. The LightShift Chemiluminescent EMSA Kit (Pierce, Rockford, IL) and synthetic biotin-labeled double-stranded consensus oligonucleotides of DR4 (5′-[…]-3′) and xenobiotic response element (XRE) (forward: 5′-[…]-3′) were used to measure pregnane X receptor (PXR) and aryl hydrocarbon receptor (AhR) nuclear protein-DNA-binding activity. […]

[2] = test system: Glutathione S-transferase; assay: GST activity in liver of treated rats; conditions: rat liver; oral 2 g/kg APE or 50 mg/kg AND daily for 5 days
Method: The microsomal UGT activity was determined by using p-nitrophenol as the substrate. The rate of formation of p-nitrophenol glucuronic acid was measured by HPLC/UV [31]. GST activity was determined spectrophotometrically by measuring the formation rate of GSH conjugates.

[3] = test system: CYP1A1, CYP1A2, CYP2C6, CYP2C11, and CYP3A2; assay: RT-PCR of hepatic CYP isozyme mRNA in treated rats; conditions: rat liver, APE or andrographolide for 5 days
Description: Total RNA in liver samples was extracted by using the Trizol reagent (1 : 20, w/v). […] The sequences for the PCR primers were as follows: for CYP1A1 (forward: 5′-[…]-3′; reverse: 5′-[…]-3′), CYP1A2 (forward: 5′-[…]-3′; reverse: 5′-[…]-3′), CYP2C6 (forward: 5′-[…]-3′; reverse: 5′-[…]-3′), CYP2C11 (forward: 5′-[…]-3′; reverse: 5′-[…]-3′), CYP2D1 (forward: 5′-[…]-3′; reverse: 5′-[…]-3′), CYP2E1 (forward: 5′-[…]-3′; reverse: 5′-[…]-3′), CYP3A1 (forward: 5′-[…]-3′; reverse: 5′-[…]-3′), CYP3A2 (forward: 5′-[…]-3′; reverse: 5′-[…]-3′), and P-glycoprotein (forward: 5′-[…]-3′; reverse: 5′-[…]-3′). The PCR for CYP1A1 was performed as follows: 5 min at 95°C and then 35 cycles of 30 s at 94°C, 30 s at 54°C, and 60 s at 72°C. For CYP1A2 and CYP3A2 amplification, the PCR cycle number was 30 times through a 30 s denaturing step at 94°C, a 30 s annealing step at 55°C, and a 30 s elongation step at 72°C. For CYP2D1 and CYP3A1, the PCR cycle number was 30 times through a 60 s denaturing step at 94°C, a 60 s annealing step at 56°C, and a 125 s elongation step at 72°C. […] The PCR amplicons were then electrophoresed in 1% agarose gels containing 40 mM Tris/20 mM glacial acetic acid/2 mM EDTA buffer, and the relative densities of the PCR products were quantitated by use of Image Gauge software (Fujifilm, Tokyo, Japan). […]

`C=C1CC[C@@H]2[C@](C)(CO)[C@H](O)CC[C@@]2(C)[C@@H]1C/C=C1/C(=O)OC[C@H]1O` [andrographolide, Andrographolide] was tested, and the “Binding activity of the DR4 consensus sequence to nuclear protein PXR” value [1] was “enhanced”, the “Glutathione S-transferase activity” value [2] was 634 ± 62 nmol/min/mg protein and the “mRNA levels of CYP1A1, CYP1A2, CYP2C6, CYP2C11, and CYP3A2” value [3] was “induced”.

— article PMC3753754, “Andrographis paniculata Extract and Andrographolide Modulate the Hepatic Drug Metabolism System and Plasma Tolbutamide Concentrations in Rats” (Evidence-based Complementary and Alternative Medicine : eCAM, 2013)
